Test results: ChEMBL document CHEMBL1131815, “Derivatives of (R)-2-amino-5-methoxytetralin: antagonists and inverse agonists at the dopamine D2A receptor” (Bioorg Med Chem Lett, 1999)

What was measured:
D(2) dopamine receptor [1] = target: T1, D(2) dopamine receptor (Homo sapiens, UniProt P14416); experiment: Displacement of [3H]quinpirole from human dopamine D2A receptors expressed in LtK cells; assay type: cell-based
D(2) dopamine receptor [2] = target: T1, D(2) dopamine receptor
D(2) dopamine receptor [3] = target: T1, D(2) dopamine receptor; experiment: Displacement of [3H]raclopride from human dopamine D2A receptors expressed in LtK cells; assay type: cell-based

T1 sequence (P14416 whole entry): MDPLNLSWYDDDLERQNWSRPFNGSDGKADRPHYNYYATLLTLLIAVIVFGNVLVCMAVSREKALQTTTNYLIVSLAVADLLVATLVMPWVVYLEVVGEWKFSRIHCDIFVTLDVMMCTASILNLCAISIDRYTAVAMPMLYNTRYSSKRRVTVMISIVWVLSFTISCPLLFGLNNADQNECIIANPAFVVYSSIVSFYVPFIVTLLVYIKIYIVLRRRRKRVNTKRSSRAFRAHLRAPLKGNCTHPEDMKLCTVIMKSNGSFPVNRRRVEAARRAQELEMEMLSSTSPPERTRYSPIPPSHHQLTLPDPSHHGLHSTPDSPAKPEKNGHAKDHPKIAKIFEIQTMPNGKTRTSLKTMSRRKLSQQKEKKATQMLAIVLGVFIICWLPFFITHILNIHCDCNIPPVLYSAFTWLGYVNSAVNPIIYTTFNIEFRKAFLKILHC

Row | Compound | Ki (D(2) dopamine receptor [1]) [nM] | nH (D(2) dopamine receptor [2]) | Ki (D(2) dopamine receptor [3]) [nM]
1 | COc1cccc2c1CC[C@@H](NCc1ccccc1)C2 | 1310 | 0.83 | 1010
2 | NCCc1ccc(O)c(O)c1 |  | 0.65 | 
3 | COc1cccc2c1CC[C@@H](N(Cc1ccccc1)Cc1ccccc1)C2 | > 5000 |  | > 5000
4 | CCCN(CCC)[C@@H]1CCc2c(cccc2OC)C1 | 6.35 | 1.06 | 46
5 | CCCN(Cc1cccs1)[C@@H]1CCc2c(cccc2OC)C1 | 339 | 0.9 | 152
6 | CCCN(Cc1ccc(F)cc1)[C@@H]1CCc2c(cccc2OC)C1 | 69.7 | 0.9 | 43.8
7 | CCCN(Cc1ccccc1)[C@@H]1CCc2c(cccc2OC)C1 | 75 | 1.05 | 65.6
8 | CCCN(Cc1ccco1)[C@@H]1CCc2c(cccc2OC)C1 | 118 | 0.83 | 125
9 | CCCN(CCC)[C@@H]1CCc2c(F)cccc2C1 |  | 0.89 | 
10 | CCCN[C@@H]1CCc2c(cccc2OC)C1 | 82.3 | 1.06 | 114
11 | CCCN(Cc1ccc(OC)cc1)[C@@H]1CCc2c(cccc2OC)C1 | 64.1 | 0.94 | 22
12 | CCCN(Cc1ccccc1)[C@@H]1CCc2c(F)cccc2C1 |  | 0.86 | 
13 | CCCN(Cc1ccc([N+](=O)[O-])cc1)[C@@H]1CCc2c(cccc2OC)C1 | 215 | 0.9 | 59.2
